In patent US8686043B2, “Heterocyclic sulfonamides, uses and pharmaceutical compositions thereof” (Pfizer Inc., priority 2009, dated 2014):

Test system: AMPA receptors
Experiment: AMPA ES Cell FLIPR Screen (AMPA Potentiator Assay)
Format: cell-based, murine
Conditions: ES cell-derived neurons, FLIPR (Fluo-4), 32 μM AMPA challenge; values marked * are the geometric mean of 2-5 EC50 determinations
Excerpt: Growth and Maintenance of ES Cells
Murine ES cell line E14, with a targeted mutation in the Sox1 gene and a neuroectodermal marker that offers G418 resistance when the Sox1 gene is expressed (Stem Cell Sciences, West Mains Road, Edinburgh, Scotland EH9 3JQ) may be used in all experiments. ES cells may be maintained undifferentiated as previously described (Methods For The Isolation And Maintenance Of Murine Embryonic Stem Cells; Roach-M-L, McNeish-J-D., Methods in Molecular Biology, 185, 1-16 (2002)). Briefly, ES cells may be grown in stem cell culture media comprising a base medium of Knockout™ D-MEM (Invitrogen 5791 Van Allen Way, Carlsbad, Calif. USA 92008), supplemented with 15% ES qualified Fetal Bovine Serum (FBS) (Invitrogen), 0.2 mM L-Glutamine (Invitrogen), 0.1 mM MEM non-essential amino acids (Invitrogen), 30 μg/ml Gentamicin […] (Invitrogen), 1000 U/ml ESGRO™ (CHEMICON International, Inc., 28820 Single Oak Drive, Temecula, Calif. 92590) and 0.1 mM 2-mercaptoethanol (Sigma, 3050 Spruce St., St. Louis, Mo. 63103). ES cells may then be plated on gelatin-coated dishes (BD Biosciences, 2350 Qume Drive, San Jose, Calif. 95131), wherein the media is changed daily and the cells dissociated with 0.05% Trypsin EDTA (Invitrogen) every other day.
Neural In Vitro Differentiation of ES Cells
Embryoid Body Formation: Prior to embryoid body (EB) formation the ES cells may be weaned from FBS onto Knockout Serum Replacement™ (KSR) (Invitrogen). To form EBs, ES cells may be dissociated into a single cell suspension, then 3×10^6 cells plated in bacteriology dishes (Nunc 4014) and grown as a suspension culture in NeuroEB-I medium that consisted of Knockout™ D-MEM (Invitrogen), supplemented with 10% KSR (Invitrogen), 0.2 mM L-Glutamine (Invitrogen), 0.1 mM MEM non-essential amino acids (Invitrogen), 30 μg/ml Gentamicin (Invitrogen), 1000 U/ml ESGRO™ (CHEMICON International, Inc.), 0.1 mM 2-mercaptoethanol (Sigma) and 150 ng/ml Transferrin (Invitrogen). The plates may then be put on a Stovall Belly Button™ shaker in an atmospheric oxygen incubator. The media may be changed on day 2 of EB formation with NeuroEB-I and on day 4 with NeuroEB-II (NeuroEB-I plus 1 μg/ml mNoggin (R&D Systems, 614 McKinley Place N.E. Minneapolis, Minn. 55413)
Neuronal Precursor Selection and Expansion: On day 5 of EB formation, EBs may be dissociated with 0.05% Trypsin EDTA, and 4×10^6 cells/100 mm dish may then be plated on Laminin coated tissue culture dishes in NeuroEB-II-G418 medium that consisted of a base medium of a 1:1 mixture of D-MEM/F12 supplemented with N2 supplements and NeuroBasal Medium supplemented with B27(I ASSUME THIS IS THE VITAMIN) supplement and 0.1 mM L-Glutamine (all from Invitrogen). The base medium may then be supplemented with 10 ng/ml bFGF (Invitrogen), 1 μg/ml mNoggin, 500 ng/ml SHH-N (IS THIS SONIC HEDGEHOG FROM ProSpecBio Rehovot Science Park, P.O. BOX 398, Rehovot 76103, Israel), 100 ng/ml FGF-8b (R&D Systems), 1 μg/ml Laminin and 200 μg/ml G418 (Invitrogen) for selection of neuronal precursors expressing Sox-1. The plates may then be put in an incubator containing 2% oxygen and maintained in these conditions. During the 6-day selection period, the NeuroEB-II ([…]) media should be changed daily. On day 6, the surviving neuronal precursor foci may then be dissociated with 0.05% Trypsin EDTA and the cells plated at a density of 1.5×10^6 cells/100 mm Laminin coated dish in Neuroll ([…])-G418 medium. The cells may then be dissociated every other day for expansion, and prepared for cryopreservation at passage 3 or 4. The cryopreservation medium typically contains 50% KSR, 10% dimethyl sulfoxide (DMSO) (Sigma) and 40% Neurol([…])-G418 medium. Neuronal precursors may be cryopreserved at a concentration of 4×10^6 cells/ml and 1 ml/cryovial in a controlled rate freezer overnight then transferred to an ultra-low freezer or liquid nitrogen for long-term storage. […]

Compound	EC50 [nM]
CC(=O)NC1CCN(c2ccc(O[C@@H]3COC[C@H]3NS(=O)(=O)C(C)C)cc2)C1 (mixture of isomers) [Example 1, N-{1-[4-trans-({4-[(isopropylsulfonyl)amino]tetrahydrofuran-3-yl}oxy)phenyl]pyrrolidin-3-yl}acetamide]	3330
CCOc1ccccc1-c1ccc(O[C@@H]2COC[C@H]2NS(=O)(=O)C(C)C)cc1 (racemic) [Example 8, trans-N-{4-[(2′-ethoxybiphenyl-4-yl)oxy]tetrahydrofuran-3-yl}propane-2-sulfonamide.]	2910
CC(C)S(=O)(=O)N[C@H]1COC[C@H]1Oc1ccc(-c2ccc(C#N)s2)nc1 (racemic) [Example 23, cis-N-[4-{[6-(5-cyano-2-thienyl)pyridin-3-yl]oxy}tetra hydrofuran-3-yl]propane-2-sulfonamide]	2580
CC(C)S(=O)(=O)N[C@H]1COC[C@H]1Oc1ccc(-c2ccc(N(C)C)nc2)cc1 (racemic) [Example 43, cis-N-[4-{4-[6-(dimethyl-amino)-pyridin-3-yl]phenoxy}-tetrahydrofuran-3-yl]propane-2-sulfonamide]	4480
CC(C)S(=O)(=O)N[C@H]1COC[C@H]1Oc1ccc(-c2ccccc2C(F)(F)F)cc1 (racemic) [Example 44, cis-N-[4-{[2′-(trifluoro-methyl)-biphenyl-4-yl]oxy}-tetrahydrofuran-3-yl]propane-2-sulfonamide]	2700
Cc1ccc(-c2ccc(O[C@@H]3COC[C@@H]3NS(=O)(=O)C(C)C)cc2)cc1 (racemic) [Example 45, cis-N-{4-[(4′-methylbiphenyl-4-yl)oxy]-tetrahydrofuran-3-yl}propane-2-sulfonamide]	2550
CC(C)S(=O)(=O)N[C@H]1COC[C@H]1Oc1ccc(-c2cccc(C(F)(F)F)c2)cc1 (racemic) [Example 47, cis-N-[4-{[3′-(trifluoromethyl)biphenyl-4-yl]oxy}tetrahydrofuran-3-yl]propane-2-sulfonamide]	3820
CC(C)S(=O)(=O)N[C@H]1COC[C@H]1Oc1ccc(-c2ccncc2)cc1 (racemic) [Example 48, cis-N-[4-(4-pyridin-4-ylphenoxy)tetrahydrofuran-3-yl]propane-2-sulfonamide]	626
CC(C)S(=O)(=O)N[C@H]1COC[C@H]1Oc1ccc(-c2cccc3ncccc23)cc1 (racemic) [Example 50, cis-N-[4-(4-quinolin-5-ylphenoxy)tetrahydrofuran-3-yl]propane-2-sulfonamide]	452
CC(C)S(=O)(=O)N[C@H]1COC[C@H]1Oc1ccc(-c2cccc3cnccc23)cc1 (racemic) [Example 52, cis-N-[4-(4-isoquinolin-5-ylphenoxy)tetrahydrofuran-3-yl]propane-2-sulfonamide]	1250
CC(C)S(=O)(=O)N[C@@H]1COC[C@@H]1Oc1ccc(-c2ccc(C#N)cc2)cc1 (relative stereo) [Example 9, cis-N-{4-[(4′-cyanobiphenyl-4-yl)oxy]tetra hydrofuran-3-yl}propane-2-sulfonamide]	6150
CC(C)S(=O)(=O)N[C@@H]1COC[C@@H]1Oc1ccc(-c2cccnc2)cc1 (relative stereo) [Example 10, cis-N-[4-(4-pyridin-3-ylphenoxy)tetrahydrofuran-3-yl]propane-2-sulfonamide]	1160
CC(C)S(=O)(=O)N[C@@H]1COC[C@@H]1Oc1ccc(-c2cccs2)cc1 (relative stereo) [Example 11, cis-N-{4-[4-(2-thienyl)phenoxy]tetrahydrofuran-3-yl}propane-2-sulfonamide]	689
CC(C)S(=O)(=O)N[C@@H]1COC[C@@H]1Oc1ccc(-c2ccc(F)nc2)cc1 (relative stereo) [Example 12, cis-N-{4-[4-(6-fluoropyridin-3-yl)phenoxy]tetrahydrofuran-3-yl}propane-2-sulfonamide]	1100
COc1ccc(-c2ccc(O[C@H]3COC[C@H]3NS(=O)(=O)C(C)C)cc2)cn1 (relative stereo) [Example 13, cis-N-{4-[4-(6-methoxypyridin-3-yl)phenoxy]tetrahydrofuran-3-yl}propane-2-sulfonamide]	5280
CC(C)S(=O)(=O)N[C@@H]1COC[C@@H]1Oc1ccc(-c2ccoc2)cc1 (relative stereo) [Example 14, cis-N-{4-[4-(3-furyl)phenoxy]tetrahydrofuran-3-yl}propane-2-sulfonamide]	2320
CC(C)S(=O)(=O)N[C@@H]1COC[C@@H]1Oc1ccc(-c2cccnc2F)cc1 (relative stereo) [Example 15, cis-N-{4-[4-(2-fluoropyridin-3-yl)phenoxy]tetrahydrofuran-3-yl}propane-2-sulfonamide]	2880
CC(C)S(=O)(=O)N[C@@H]1COC[C@@H]1Oc1ccc(-c2ccsc2)cc1 (relative stereo) [Example 24, cis-N-{4-[4-(3-thienyl)phenoxy]tetrahydrofuran-3-yl}propane-2-sulfonamide]	523
CC(C)S(=O)(=O)N[C@H]1COC[C@H]1Oc1ccc(-c2ccc(C(=O)N(C)C)cc2)cc1 (relative stereo) [Example 46, cis-4′-({4-[(isopropyl-sulfonyl)-amino]tetrahydrofuran-3-yl}oxy)-N,N-dimethyl-biphenyl-4-carboxamide]	6760
CC(C)S(=O)(=O)N[C@H]1COC[C@H]1Oc1ccc(-c2ccccc2C(N)=O)cc1 (relative stereo) [Example 49, cis-4′-({4-[(isopropylsulfonyl)amino]tetrahydrofuran-3-yl}oxy)biphenyl-2-carboxamide]	1410
CC(C)S(=O)(=O)N[C@H]1COC[C@H]1Oc1ccc(-c2ccccc2S(=O)(=O)NC(C)(C)C)cc1 (relative stereo) [Example 51, cis-N-tert-butyl-4′-({4-[(isopropylsulfonyl)amino]tetrahydrofuran-3-yl}oxy)biphenyl-2-sulfonamide]	2090
CC(C)S(=O)(=O)N[C@H]1COC[C@H]1Oc1ccc(-c2cccc(C(N)=O)c2)cc1 (relative stereo) [Example 53, cis-4′-({4-[(isopropylsulfonyl)amino]tetrahydrofuran-3-yl}oxy) biphenyl-3-carboxamide]	1110
CC(C)S(=O)(=O)N[C@H]1COC[C@H]1Oc1ccc(-c2ccc(F)cc2C#N)cc1 (single isomer, unassigned) [Example 16]	< 10
CC(C)S(=O)(=O)N[C@H]1COC[C@H]1Oc1ccc(-c2ccc(F)cc2)cc1 (single isomer, unassigned) [Example 17]	405
CC(C)S(=O)(=O)N[C@H]1COC[C@H]1Oc1ccc(-c2ccccc2)cc1 [Example 2, N-[(3S,4S)-4-(biphenyl-4-yloxy)tetrahydrofuran-3-yl]propane-2-sulfonamide]	1360
CC(C)S(=O)(=O)N[C@H]1COC[C@H]1Oc1ccc(-c2ccccc2C#N)cc1 [Example 3, N-{(3S,4S)-4-[(2′-cyanobiphenyl-4-yl)oxy]tetrahydrofuran-3-yl}propane-2-sulfonamide]	21.7
CC(C)S(=O)(=O)N[C@H]1COC[C@H]1Oc1ccc(-c2ccc(C#N)s2)cc1 [Example 4, N-{(3S,4S)-4-[4-(5-cyano-2-thienyl)phenoxy]tetrahydrofuran-3-yl}propane-2-sulfonamide]	1790
